# Patent US9849127B2, “Means and methods for treating cancer” (Medizinische Hochschule Hannover, priority 2013, dated 2017)
# What was measured:
# [1] = tested on: R-2-hydroxyglutarate (R-2HG); assay: Ratio R-2HG/S-2HG in serum of treated mice; type: in vivo; settings: treated mice versus PBS, 9 weeks after treatment, pooled serum
# Text: FIG. 6: Ratio of R-2-hydroxyglutarate (R-2HG) to S-2-hydroxyglutarate (S-2HG) in serum from mice treated with HMS-101 or solvent control (PBS) at 9 weeks after treatment. Serum from 3 mice were pooled per indicated measurement (9 mice for PBS, 12 mice for HMS-101).
# 2-hydroxyglutarate (R-2HG), in particular elevated values thereof, typically measured in terms of the ratio between R- and S-form (R-2HG/S-2HG) is a marker for leukemia in accordance with the present invention. […] This establishes both the usefulness of the mentioned ratio as a marker for leukemia and the beneficial effects of HMS-101.
# IDH1wt cells = assay: Alamar blue cell viability assay, IDH1wt cells; type: cell-based; settings: IDH1wt cells in vitro, treated for 72 hours
# Experimental: (§1) FIG. 1: IC50 values for IDH1wt and IDH1mut treated with compound HMS-101 for 72 hours.
# [2] = Toxicity testing in animals; type: in vivo; settings: mice, 1 mg intraperitoneally daily for two weeks
# Experimental: The compound described herein has been given to mice at a dose of 1 mg intraperitoneally daily for two weeks.
# IDH1 mutant enzyme = assay: Intracellular 2HG levels in IDH1mutant cells (neomorphic activity); type: cell-based; settings: 72 hours, 10 μM, versus control treated cells
# Text: FIG. 2: D-2HG levels from IDH1mut cells treated with compound HMS-101 (drug) or solvent control.
# IDH1mut cancer cells = assay: Alamar blue cell viability assay, IDH1mut cells; type: cell-based
# Experimental: as §1
# [3] = tested on: HoxA9 immortalized bone marrow cells expressing IDH1R132C; assay: Survival of mice transplanted with HoxA9 immortalized IDH1R132C bone marrow cells; type: in vivo; settings: 1 mg/mouse 5 days/week starting 5 days after transplantation, versus PBS; follow-up ongoing
# Experimental: FIG. 5: Survival of mice treated with HMS-101.
# HoxA9 immortalized bone marrow cells from C57BL/6J mice were transduced with retroviral vectors expressing IDH1R132C and GFP. One million GFP-expressing sorted cells were injected intravenously in lethally-irradiated syngeneic recipient mice, accompanied by a life-sparing dose of 1×10^5 freshly isolated bone marrow cells from syngeneic mice. One cohort of mice was treated with HMS-101 at a dose of 1 mg/mouse for 5 days/week starting 5 days after transplantation. The control cohort was treated with PBS for 5 days/week starting 5 days after transplantation. The solid line represents the survival of PBS-treated mice, the dotted line represents the survival of HMS-101-treated mice. Follow-up and treatment are ongoing.
# [4] = tested on: primary human AML cells harboring the IDH1 mutation; assay: Rate of apoptosis of primary human AML cells; type: cell-based; settings: IDH1-mutated primary human AML cells compared to AML cells with wildtype IDH1 and CD34+ cells from healthy donors
# Text: FIG. 4: Rate of apoptosis of primary human AML cells with and without IDH1 mutation treated with solvent control (DMSO) or compound HMS-101. Human CD34^+ hematopoietic stem and progenitor cells from healthy donors were used as controls.
# [5] = tested on: primary human AML cells harboring the IDH1 mutation; assay: Colony forming assay of primary human AML cells; type: cell-based; settings: IDH1-mutated primary human AML cells compared to AML cells with wildtype IDH1 and CD34+ cells from healthy donors
# Text: FIG. 3: Colony forming assay of primary human AML cells with and without IDH1 mutation treated with solvent control (DMSO) or compound HMS-101. Human CD34^+ hematopoietic stem and progenitor cells from healthy donors were used as controls.
compound,measurement,setting,value
CN1CCN(C)[C@H](CCN2CC[C@H](c3ccc(F)cc3)C2)C1 [HMS-101],ratio R-2HG/S-2HG in serum,[1],decrease of the ratio R-2HG/S-2HG
same,IC50,IDH1wt cells,12 µM
same,tolerability / visible signs of toxicity,[2],well tolerated by the animals with no visible signs of toxicity
same,intracellular 2HG levels (D-2HG),IDH1 mutant enzyme,dramatically reduced
same,IC50 on IDH1wt cells relative to IDH1mut cells,IDH1mut cancer cells; 72 hours,12 times
same,IC50,"IDH1mut cancer cells; IDH1mut cancer cells in vitro, treated for 72 hours",1 µM
same,survival,[3],survival benefit
same,rate of apoptosis,[4],increased the rate of apoptosis
same,colony forming potential,[5],reduced the colony forming potential
